In patent publication US7169763B2, “Cytochrome P450 3A inhibitors and enhancers” (priority 2002, dated 2007):

Assays:
[1] = given by mouth; cited from earlier work
[2] = system: CYP3A; design: CYP3A Activity (percentage of control): dose or concentration left out as unconfirmed

Structure (SMILES)	fraction of active ingredient quickly changed to metabolites [1]	inhibitory effects on rat liver CYP3A (in words) [2]	CYP3A Activity (percentage of control) ([2]; rat, 15 min, 10.22)
CC(C)(C)c1ccc(C(O)CCCN2CCC(C(O)(c3ccccc3)c3ccccc3)CC2)cc1 (stereo not drawn) [terfenadine]	99.5%		
O=C/C=C/c1ccccc1 [Trans-cinnamaldehyde]		particularly effective	30.95 ± 1.03 percentage of control
